How the values were obtained:
CB2 receptors [1] = target: T1, CB2 receptors (Homo sapiens, UniProt P34972); assay: Signal transduction in CHO-CB2-CREluc cells (luciferase; forskolin, AM630); details: for Effect on CB2 receptor (in words): text statement
CB1 receptors [2] = target: T2, CB1 receptors (Homo sapiens, UniProt P21554); assay: Signal transduction in CHO-CB1-CREluc cells (luciferase; agonism, and antagonism against WIN); details: for Effect on CB1 receptor (in words): text statement
NFAT = assay: Jurkat T cell model, NFAT dependent luciferase activation by PMA plus ionomycin; assay type: cell-based; details: luciferase construct
Procedure: (§1) Substances according to the invention were investigated in an accepted Jurkat T cell model. The underlying mechanism is based on the fact that the transcriptional activity of lymphokines, such as e.g. the one of IL-2, is based on the coordinated activation of different transcription factors, such as e.g. NFAT and NF-κB. The effect of the substances according to the invention on said factors was evaluated in-vitro with the aid of a luciferase-coupled construct (KBF-luc). Thereby, an activation of transiently transfected cells (Jurkat T cells) through PMA (plus ionomycin in case of NFAT activation), driven by a NF-κB or NFAT dependent promoter, leads to a strong induction of luciferase gene expression. The inhibition of the luciferase activity was measured as a function of the dose rate of the substance according to the invention. A knowledgeable person skilled in the art can easily follow such procedure from the literature (e.g. in Yuan et al. (2002), Sancho et al. (2003), Do et al. (2004) and Cencioni et al. (2010)).

CB1 receptors [3] = target: T2, CB1 receptors; assay: biochemical; assay type: binding; parameters: purchased RBHCB1M400UA; host or cells: human cells (transfected); details: for Ki: dissociation constant, mean +/- SEM, competition with [3H]-CP55940; for CB1 (% binding): screening with a single high dose, displacement of [3H]-CP55940
CB2 receptors [4] = target: T1, CB2 receptors; assay: Competition binding study with [3H]-CP55940 in CB2 receptor transfected cell membranes; parameters: purchased RBXCB2M400UA; host or cells: human cells (transfected); details: for Ki: dissociation constant, mean +/- SEM, competition with [3H]-CP55940; for Ki (CB1): Ki (CB2) Selectivity for CB2 in comparison to CB1 (rounded): ratio of Ki values; for CB2 (% binding): screening with a single high dose, displacement of [3H]-CP55940
NF-κB = assay: Jurkat T cell model, NF-κB dependent luciferase activation by PMA; assay type: cell-based; details: luciferase construct
Procedure: as §1

[5] = listed as 2-Hydroxyethyl cannabidiolate
[6] = listed as Glyceryl cannabidiolate
[7] = listed as N-Methyl-sulfonyl cannabidiolate

T1 sequence (P34972 whole entry): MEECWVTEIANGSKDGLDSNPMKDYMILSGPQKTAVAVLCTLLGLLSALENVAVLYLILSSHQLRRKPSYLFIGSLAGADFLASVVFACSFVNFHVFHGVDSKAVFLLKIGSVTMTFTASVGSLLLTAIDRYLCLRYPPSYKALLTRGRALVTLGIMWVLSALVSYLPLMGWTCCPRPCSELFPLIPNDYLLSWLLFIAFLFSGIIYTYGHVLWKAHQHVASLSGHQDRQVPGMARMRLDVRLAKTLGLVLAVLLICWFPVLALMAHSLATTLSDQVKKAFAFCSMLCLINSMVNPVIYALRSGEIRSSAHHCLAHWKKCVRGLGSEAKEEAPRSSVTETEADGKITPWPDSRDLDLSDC
T2 sequence (P21554 whole entry): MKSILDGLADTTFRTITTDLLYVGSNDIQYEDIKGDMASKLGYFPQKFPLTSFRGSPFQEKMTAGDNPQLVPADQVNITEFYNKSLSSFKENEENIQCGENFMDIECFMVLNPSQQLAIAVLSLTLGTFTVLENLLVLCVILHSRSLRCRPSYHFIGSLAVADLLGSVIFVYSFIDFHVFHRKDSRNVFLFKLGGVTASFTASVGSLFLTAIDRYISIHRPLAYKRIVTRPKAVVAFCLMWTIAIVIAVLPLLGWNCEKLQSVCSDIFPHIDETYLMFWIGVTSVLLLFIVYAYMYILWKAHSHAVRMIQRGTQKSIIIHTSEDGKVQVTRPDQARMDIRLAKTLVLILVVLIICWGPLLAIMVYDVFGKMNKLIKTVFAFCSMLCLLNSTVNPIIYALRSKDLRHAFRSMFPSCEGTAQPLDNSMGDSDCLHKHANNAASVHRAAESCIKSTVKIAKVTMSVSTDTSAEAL

SMILES: C=C(C)C1CCC(C)=CC1c1c(O)cc(CCCCC)c(C(=O)OCC(O)CCC)c1O (centres unmarked) [2-hydroxypentyl cannabidiolate]
- Effect on CB2 receptor (in words) (CB2 receptors [1]): strong activation
- Effect on CB1 receptor (in words) (CB1 receptors [2]): inhibit
- Inhibition of NFAT dependent activation of T cells (NFAT): inhibition

SMILES: C=C(C)[C@@H]1CCC(C)=C[C@H]1c1c(O)cc(CCCCC)c(C(=O)OCCO)c1O [Compound III, 2-hydroxyethyl cannabidiolate]
- Agonism and antagonism at CB2 (CB2 receptors [1]): +
- Effect on CB2 receptor (in words) (CB2 receptors [1]): CB2 agonists
- Effect on CB2 receptor (in words) (CB2 receptors [1]; [5]): strong activation
- Agonism and antagonism at CB1 (CB1 receptors [2]): −
- Effect on CB1 receptor (in words) (CB1 receptors [2]): CB1 antagonists
- Effect on CB1 receptor (in words) (CB1 receptors [2]; [5]): inhibit
- Ki (CB1 receptors [3]): 3920 nM
- CB1 (% binding) (CB1 receptors [3]): 77.3 ± 6.5%
- Inhibition of NFAT dependent activation of T cells (NFAT): inhibition
- Ki (CB2 receptors [4]): 375 ± 47.7 nM
- Ki (CB1): Ki (CB2) Selectivity for CB2 in comparison to CB1 (rounded) (CB2 receptors [4]): 10.4
- CB2 (% binding) (CB2 receptors [4]): 90.3 ± 2.4%

SMILES: C=C(C)[C@@H]1CCC(C)=C[C@H]1c1c(O)cc(CCCCC)c(C(=O)OCC(O)CO)c1O (some centres unmarked) [Compound IV, Glyceryl cannabidiolate]
- Agonism and antagonism at CB2 (CB2 receptors [1]): +
- Effect on CB2 receptor (in words) (CB2 receptors [1]): CB2 agonists
- Effect on CB2 receptor (in words) (CB2 receptors [1]; [6]): strong activation
- Agonism and antagonism at CB1 (CB1 receptors [2]): +
- Effect on CB1 receptor (in words) (CB1 receptors [2]): CB1 agonists
- Effect on CB1 receptor (in words) (CB1 receptors [2]; [6]): weak activation
- Ki (CB1 receptors [3]): 2170 nM
- CB1 (% binding) (CB1 receptors [3]): 90.2 ± 3.8%
- Inhibition of NFAT dependent activation of T cells (NFAT): inhibition
- Ki (CB2 receptors [4]): 277 ± 78.7 nM
- Ki (CB1): Ki (CB2) Selectivity for CB2 in comparison to CB1 (rounded) (CB2 receptors [4]): 7.8
- CB2 (% binding) (CB2 receptors [4]): 101.6 ± 0.5%

SMILES: C=C(C)[C@@H]1CCC(C)=C[C@H]1c1c(O)cc(CCCCC)c(C(=O)OCC(O)CCC)c1O (some centres unmarked) [Compound V, 2-hydroxypentyl cannabidiolate]
- Agonism and antagonism at CB2 (CB2 receptors [1]): +
- Effect on CB2 receptor (in words) (CB2 receptors [1]): CB2 agonists
- Agonism and antagonism at CB1 (CB1 receptors [2]): −
- Effect on CB1 receptor (in words) (CB1 receptors [2]): CB1 antagonists
- Ki (CB1 receptors [3]): 538 ± 53.9 nM
- CB1 (% binding) (CB1 receptors [3]): 82.0 ± 8.0%

SMILES: C=C(C)C1CCC(C)=CC1c1c(O)cc(CCCCC)c(C(=O)OCCCCCC)c1O (centres unmarked) [Hexyl cannabidiolate]
- Agonism and antagonism at CB2 (CB2 receptors [1]): +
- Effect on CB2 receptor (in words) (CB2 receptors [1]): antagonism
- Agonism and antagonism at CB1 (CB1 receptors [2]): +
- Effect on CB1 receptor (in words) (CB1 receptors [2]): antagonism

SMILES: C=C(C)[C@@H]1CCC(C)=CC1c1c(O)cc(CCCCC)c(C(=O)OCCCCCC)c1O (some centres unmarked) [XI, Hexyl cannabidiolate]
- Effect on CB2 receptor (in words) (CB2 receptors [1]): CB2 agonists
- Effect on CB1 receptor (in words) (CB1 receptors [2]): CB1 agonists
- Ki (CB1 receptors [3]): 538 ± 53.9 nM
- CB1 (% binding) (CB1 receptors [3]): 92.2 ± 1.7%
- Ki (CB2 receptors [4]): 510 ± 29 nM
- Ki (CB1): Ki (CB2) Selectivity for CB2 in comparison to CB1 (rounded) (CB2 receptors [4]): 1
- CB2 (% binding) (CB2 receptors [4]): 97.2 ± 3.4%

SMILES: C=C(C)[C@@H]1CCC(C)=CC1c1c(O)cc(CCCCC)c(C(=O)OC2CCCCC2)c1O (some centres unmarked) [XII, Cyclohexyl cannabidiolate]
- Agonism and antagonism at CB2 (CB2 receptors [1]): 0
- Agonism and antagonism at CB1 (CB1 receptors [2]): −
- Effect on CB1 receptor (in words) (CB1 receptors [2]): CB1 antagonists
- Effect on CB1 receptor (in words) (CB1 receptors [2]; listed as cyclohexyl cannabidiolate): antagonistic effect
- Ki (CB1 receptors [3]): 538 ± 53.9 nM
- CB1 (% binding) (CB1 receptors [3]): 81.5 ± 6.8%
- Ki (CB2 receptors [4]): 67 ± 4 nM
- Ki (CB1): Ki (CB2) Selectivity for CB2 in comparison to CB1 (rounded) (CB2 receptors [4]): 37
- CB2 (% binding) (CB2 receptors [4]): 99.2 ± 2.3%

SMILES: C=C(C)[C@@H]1CCC(C)=CC1c1c(O)cc(CCCCC)c(C(=O)OCCNS(C)(=O)=O)c1O (some centres unmarked) [XIII, N-Methyl-sulfonyl cannabidiolate]
- Agonism and antagonism at CB2 (CB2 receptors [1]): +
- Effect on CB2 receptor (in words) (CB2 receptors [1]): CB2 agonists
- Effect on CB2 receptor (in words) (CB2 receptors [1]; [7]): agonistic effect
- Agonism and antagonism at CB1 (CB1 receptors [2]): −
- Effect on CB1 receptor (in words) (CB1 receptors [2]): CB1 antagonists
- Effect on CB1 receptor (in words) (CB1 receptors [2]; [7]): antagonistic effect
- Binding to CB1 receptors (in words) (CB1 receptors [3]): high binding affinity
- Ki (CB1 receptors [3]): 538 ± 53.9 nM
- CB1 (% binding) (CB1 receptors [3]): 98.9 ± 7.8%
- Inhibition of NFAT dependent activation of T cells (NFAT): strong inhibition
- Inhibition of NF-κB dependent activation of T cells (NF-κB): strong inhibition
- Binding to CB2 receptors (in words) (CB2 receptors [4]): high binding affinity
- Ki (CB2 receptors [4]): 0.012 ± 0.001 nM
- Ki (CB1): Ki (CB2) Selectivity for CB2 in comparison to CB1 (rounded) (CB2 receptors [4]): 22.5
- CB2 (% binding) (CB2 receptors [4]): 104.9 ± 4.8%
